Data taken from PubChem BioAssay (NCI).
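Method: 48-hour compound exposure of cells in 96-well plates, five concentrations, linear interpolation of endpoints. GI50 = concentration required for 50% inhibition of growth. The concentration for full growth arrest is given as TGI.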

How the values were obtained:
Experiment in all cases: NCI anticancer screen, dose series, 48 h; in the data active = GI50 below about 0.43 µM; inactive = the rest
NCI-H522 lung = test system: NCI-H522 lung
ACHN renal = test system: ACHN renal
MDA-MB-435 = test system: MDA-MB-435
UACC-62 melanoma = test system: UACC-62 melanoma
HCT-15 colon = test system: HCT-15 colon
SK-MEL-5 melanoma = test system: SK-MEL-5 melanoma
NCI/ADR-RES ovarian = test system: NCI/ADR-RES ovarian
MOLT-4 leukemia = test system: MOLT-4 leukemia
OVCAR-5 ovarian = test system: OVCAR-5 ovarian
COLO 205 colon = test system: COLO 205 colon
A549 NSCLC = test system: A549 NSCLC
SK-OV-3 ovarian = test system: SK-OV-3 ovarian
NCI-H460 lung = test system: NCI-H460 lung
RPMI-8226 leukemia = test system: RPMI-8226 leukemia
SW-620 colon = test system: SW-620 colon
UACC-257 melanoma = test system: UACC-257 melanoma
CAKI-1 renal = test system: CAKI-1 renal
BT-549 breast = test system: BT-549 breast
U251 CNS = test system: U251 CNS
SF-268 CNS = test system: SF-268 CNS
HT29 colon = test system: HT29 colon
LOX IMVI melanoma = test system: LOX IMVI melanoma
HOP-92 NSCLC = test system: HOP-92 NSCLC
M14 melanoma = test system: M14 melanoma
MDA-MB-231 breast = test system: MDA-MB-231 breast
OVCAR-3 ovarian = test system: OVCAR-3 ovarian
KM12 colon = test system: KM12 colon
OVCAR-4 ovarian = test system: OVCAR-4 ovarian
CCRF-CEM leukemia = test system: CCRF-CEM leukemia
K-562 leukemia = test system: K-562 leukemia
SNB-75 CNS = test system: SNB-75 CNS
SN12C renal = test system: SN12C renal
HS 578T breast = test system: HS 578T breast
SF-295 CNS = test system: SF-295 CNS
NCI-H226 lung = test system: NCI-H226 lung
NCI-H23 lung = test system: NCI-H23 lung
MALME-3M melanoma = test system: MALME-3M melanoma
IGROV1 ovarian = test system: IGROV1 ovarian
PC-3 prostate = test system: PC-3 prostate
UO-31 renal = test system: UO-31 renal
HL-60(TB) leukemia = test system: HL-60(TB) leukemia
TK-10 renal = test system: TK-10 renal
RXF 393 renal = test system: RXF 393 renal
HCC-2998 colon = test system: HCC-2998 colon
SNB-19 CNS = test system: SNB-19 CNS
MCF7 breast = test system: MCF7 breast
EKVX NSCLC = test system: EKVX NSCLC
HCT-116 colon = test system: HCT-116 colon
OVCAR-8 ovarian = test system: OVCAR-8 ovarian
SK-MEL-28 melanoma = test system: SK-MEL-28 melanoma
SF-539 CNS = test system: SF-539 CNS
T-47D breast = test system: T-47D breast
A498 renal = test system: A498 renal
SK-MEL-2 melanoma = test system: SK-MEL-2 melanoma
SR leukemia = test system: SR leukemia
HOP-62 NSCLC = test system: HOP-62 NSCLC
786-0 renal = test system: 786-0 renal
DU-145 prostate = test system: DU-145 prostate

O=C1/C(=C/c2ccc(Cl)cc2)CCCc2ccc(F)cc21
52 µM: TGI (RXF 393 renal)
28.7 µM: TGI (RPMI-8226 leukemia)
64.5 µM: TGI (CAKI-1 renal)
39.2 µM: TGI (M14 melanoma)
40.9 µM: TGI (SK-MEL-28 melanoma)
69.4 µM: TGI (SK-OV-3 ovarian)
75.1 µM: TGI (OVCAR-8 ovarian)
31.8 µM: TGI (LOX IMVI melanoma) | TGI (MALME-3M melanoma)
54.5 µM: TGI (NCI-H522 lung)
68.5 µM: TGI (ACHN renal)
73.5 µM: TGI (NCI/ADR-RES ovarian)
68.3 µM: TGI (IGROV1 ovarian)
> 100 µM: TGI (MDA-MB-435) | TGI (HCT-15 colon) | TGI (MOLT-4 leukemia) | TGI (OVCAR-5 ovarian) | TGI (A549 NSCLC) | TGI (BT-549 breast) | TGI (HT29 colon) | TGI (K-562 leukemia) | TGI (SNB-75 CNS) | TGI (SF-295 CNS) | TGI (NCI-H23 lung) | TGI (HL-60(TB) leukemia) | TGI (MCF7 breast) | TGI (HCT-116 colon)
46.9 µM: TGI (SF-268 CNS)
54.9 µM: TGI (HCC-2998 colon)
52.8 µM: TGI (MDA-MB-231 breast)
56.3 µM: TGI (COLO 205 colon)
31.3 µM: TGI (SK-MEL-5 melanoma)
48.3 µM: TGI (PC-3 prostate)
34 µM: TGI (HOP-92 NSCLC)
42.9 µM: TGI (UACC-257 melanoma) | TGI (SN12C renal)
inactive: GI50 (NCI-H522 lung) 12.2 µM | GI50 (ACHN renal) 27.8 µM | GI50 (MDA-MB-435) 20.3 µM | GI50 (UACC-62 melanoma) 16.1 µM | GI50 (HCT-15 colon) 22.1 µM | GI50 (SK-MEL-5 melanoma) 17.4 µM | GI50 (NCI/ADR-RES ovarian) 26.6 µM | GI50 (MOLT-4 leukemia) 12.1 µM | GI50 (OVCAR-5 ovarian) 32.4 µM | GI50 (COLO 205 colon) 18.7 µM | GI50 (A549 NSCLC) 26.4 µM | GI50 (SK-OV-3 ovarian) 24.7 µM | GI50 (NCI-H460 lung) 20.1 µM | GI50 (RPMI-8226 leukemia) 4.36 µM | GI50 (SW-620 colon) 15.4 µM | GI50 (UACC-257 melanoma) 16.7 µM | GI50 (CAKI-1 renal) 22.5 µM | GI50 (BT-549 breast) 39.8 µM | GI50 (U251 CNS) 13.4 µM | GI50 (SF-268 CNS) 19.9 µM | GI50 (HT29 colon) 24.2 µM | GI50 (LOX IMVI melanoma) 14.4 µM | GI50 (HOP-92 NSCLC) 9.3 µM | GI50 (M14 melanoma) 11.6 µM | GI50 (MDA-MB-231 breast) 19.8 µM | GI50 (OVCAR-3 ovarian) 16.9 µM | GI50 (KM12 colon) 12.9 µM | GI50 (OVCAR-4 ovarian) 17.5 µM | GI50 (CCRF-CEM leukemia) 11.5 µM | GI50 (K-562 leukemia) 11.1 µM | GI50 (SNB-75 CNS) 48.3 µM | GI50 (SN12C renal) 20.1 µM | GI50 (HS 578T breast) 29.2 µM | GI50 (SF-295 CNS) 31.4 µM | GI50 (NCI-H226 lung) 16.8 µM | GI50 (NCI-H23 lung) 36.7 µM | GI50 (MALME-3M melanoma) 6.45 µM | GI50 (IGROV1 ovarian) 14.6 µM | GI50 (PC-3 prostate) 15.9 µM | GI50 (UO-31 renal) 15.8 µM | GI50 (HL-60(TB) leukemia) 17.2 µM | GI50 (TK-10 renal) 15.7 µM | GI50 (RXF 393 renal) 24.2 µM | GI50 (HCC-2998 colon) 21.2 µM | GI50 (SNB-19 CNS) 27.6 µM | GI50 (MCF7 breast) 8.35 µM | GI50 (EKVX NSCLC) 27.9 µM | GI50 (HCT-116 colon) > 100 µM | GI50 (OVCAR-8 ovarian) 22.8 µM | GI50 (SK-MEL-28 melanoma) 14.7 µM
35.9 µM: TGI (UO-31 renal)
51.4 µM: TGI (OVCAR-3 ovarian)
62 µM: TGI (HS 578T breast)
34.2 µM: TGI (KM12 colon)
80.2 µM: TGI (SNB-19 CNS)
51.2 µM: TGI (OVCAR-4 ovarian)
61 µM: TGI (CCRF-CEM leukemia) | TGI (EKVX NSCLC)
31.6 µM: TGI (SW-620 colon)
54 µM: TGI (NCI-H460 lung)
47 µM: TGI (UACC-62 melanoma)
43.5 µM: TGI (TK-10 renal)
41.8 µM: TGI (NCI-H226 lung)
52.6 µM: TGI (U251 CNS)

COc1ccc(C(=O)N2c3ccccc3Sc3ccccc32)c(F)c1
26.8 µM: TGI (COLO 205 colon)
8.68 µM: TGI (A498 renal)
> 100 µM: TGI (NCI-H522 lung) | TGI (T-47D breast) | TGI (ACHN renal) | TGI (UACC-62 melanoma) | TGI (HCT-15 colon) | TGI (NCI/ADR-RES ovarian) | TGI (MOLT-4 leukemia) | TGI (OVCAR-5 ovarian) | TGI (SK-MEL-2 melanoma) | TGI (A549 NSCLC) | TGI (SK-OV-3 ovarian) | TGI (NCI-H460 lung) | TGI (SW-620 colon) | TGI (UACC-257 melanoma) | TGI (CAKI-1 renal) | TGI (BT-549 breast) | TGI (SR leukemia) | TGI (U251 CNS) | TGI (SF-268 CNS) | TGI (LOX IMVI melanoma) | TGI (M14 melanoma) | TGI (MDA-MB-231 breast) | TGI (HOP-62 NSCLC) | TGI (OVCAR-3 ovarian) | TGI (KM12 colon) | TGI (OVCAR-4 ovarian) | TGI (786-0 renal) | TGI (CCRF-CEM leukemia) | TGI (K-562 leukemia) | TGI (SN12C renal) | TGI (HS 578T breast) | TGI (SF-295 CNS) | TGI (NCI-H226 lung) | TGI (NCI-H23 lung) | TGI (MALME-3M melanoma) | TGI (IGROV1 ovarian) | TGI (DU-145 prostate) | TGI (PC-3 prostate) | TGI (UO-31 renal) | TGI (HL-60(TB) leukemia) | TGI (TK-10 renal) | TGI (RXF 393 renal) | TGI (HCC-2998 colon) | TGI (SNB-19 CNS) | TGI (MCF7 breast) | TGI (EKVX NSCLC) | TGI (HCT-116 colon) | TGI (OVCAR-8 ovarian) | TGI (SK-MEL-28 melanoma)
22.5 µM: TGI (SK-MEL-5 melanoma)
43.3 µM: TGI (HT29 colon)
63 µM: TGI (RPMI-8226 leukemia)
3.36 µM: TGI (SF-539 CNS)
34 µM: TGI (SNB-75 CNS)
59.7 µM: TGI (HOP-92 NSCLC)
inactive: GI50 (T-47D breast) 0.639 µM | GI50 (ACHN renal) 0.831 µM | GI50 (SK-MEL-5 melanoma) 0.759 µM | GI50 (NCI/ADR-RES ovarian) 0.517 µM | GI50 (MOLT-4 leukemia) 0.715 µM | GI50 (OVCAR-5 ovarian) 3.66 µM | GI50 (COLO 205 colon) 0.445 µM | GI50 (SK-MEL-2 melanoma) 0.531 µM | GI50 (A549 NSCLC) 1.19 µM | GI50 (SK-OV-3 ovarian) 4.13 µM | GI50 (NCI-H460 lung) 0.485 µM | GI50 (RPMI-8226 leukemia) 0.922 µM | GI50 (SW-620 colon) 0.458 µM | GI50 (UACC-257 melanoma) > 100 µM | GI50 (CAKI-1 renal) 0.584 µM | GI50 (BT-549 breast) 0.676 µM | GI50 (U251 CNS) 0.615 µM | GI50 (SF-268 CNS) 10.7 µM | GI50 (LOX IMVI melanoma) 0.726 µM | GI50 (MDA-MB-231 breast) 3.52 µM | GI50 (HOP-62 NSCLC) 0.968 µM | GI50 (KM12 colon) 0.489 µM | GI50 (OVCAR-4 ovarian) 2.01 µM | GI50 (786-0 renal) 0.675 µM | GI50 (CCRF-CEM leukemia) 0.522 µM | GI50 (K-562 leukemia) 0.442 µM | GI50 (SN12C renal) 1.94 µM | GI50 (NCI-H226 lung) 2.35 µM | GI50 (NCI-H23 lung) 3.42 µM | GI50 (MALME-3M melanoma) 16.2 µM | GI50 (IGROV1 ovarian) 0.808 µM | GI50 (DU-145 prostate) 1.4 µM | GI50 (UO-31 renal) 3.78 µM | GI50 (TK-10 renal) 10.4 µM | GI50 (RXF 393 renal) 0.764 µM | GI50 (HCC-2998 colon) 2.38 µM | GI50 (SNB-19 CNS) 0.571 µM | GI50 (EKVX NSCLC) 2.72 µM | GI50 (OVCAR-8 ovarian) 2.2 µM | GI50 (SK-MEL-28 melanoma) 1.64 µM
active: GI50 (NCI-H522 lung) 0.403 µM | GI50 (SF-539 CNS) 0.409 µM | GI50 (A498 renal) 0.33 µM | GI50 (UACC-62 melanoma) 0.382 µM | GI50 (HCT-15 colon) 0.419 µM | GI50 (SR leukemia) 0.38 µM | GI50 (HT29 colon) 0.38 µM | GI50 (HOP-92 NSCLC) 0.238 µM | GI50 (M14 melanoma) 0.371 µM | GI50 (OVCAR-3 ovarian) 0.418 µM | GI50 (SNB-75 CNS) 0.288 µM | GI50 (HS 578T breast) 0.377 µM | GI50 (SF-295 CNS) 0.395 µM | GI50 (PC-3 prostate) 0.407 µM | GI50 (HL-60(TB) leukemia) 0.325 µM | GI50 (MCF7 breast) 0.405 µM | GI50 (HCT-116 colon) 0.393 µM
